Target: T1, GPR35 (Homo sapiens, UniProt Q9HC97)
T1 construct: expressed in transfected cells; host or cells: CHO-K1 cells co-expressing mitochondrial aequorin and Gα16
Assay: cellular GPR35 phospho-ERK HTRF assay (inhibition of lodoxamide-induced phospho-ERK signal)
Type: cell-based
Conditions: GPR35-CHO-K1-mt aequorin-Gα16 cell line; agonist lodoxamide at EC80; read-out: Activity Group (IC50, inhibition of GPR35 agonist-induced phospho-ERK signal)
From the text: (§1) The functional GPR35 assay as described in the accompanying examples measures the ability of GPR35 modulators to inhibit a GPR35 agonist-induced phospho-ERK signal. This is expressed as the concentration of modulator required to reduce the phospho-ERK signal by 50 percent, i.e. the IC50; the signal window being defined as the difference between agonist plus modulator vehicle (no modulator) and agonist vehicle (no agonist) controls.
as §1, with “functional” for “functional GPR35”, “assay” for “assay as”, “described” for “described in the accompanying examples”
This assay is a cellular GPR35 phospho-ERK homogeneous time resolved fluorescence (HTRF) assay using the GPR35-CHO-K1-mt aequorin-Gα16 cell line. Upon activation of GPR35 with the agonist lodoxamide at EC80 concentration, ERK 1/2 is phosphorylated, and after lysis of the cell membrane, phospho-ERK1/2 (Thr202/Tyr204) is detected in a sandwich assay using two different specific antibodies, one labelled with Eu^3+-cryptate (donor) and the second with d2 (acceptor). When the dyes are in proximity, the excitation of the donor with a light source (laser or flash lamp) triggers a Fluorescence Resonance Energy Transfer (FRET) towards the acceptor, resulting in specific acceptor fluorescence (at 665 nm). The specific signal is directly proportional to the amount of phospho-ERK1/2 (Thr202/Tyr204) in the sample. Compounds that interfere with the levels of phospho-ERK1/2 (Thr202/Tyr204) will result in a low HTRF signal.

T1 sequence (Q9HC97 whole entry): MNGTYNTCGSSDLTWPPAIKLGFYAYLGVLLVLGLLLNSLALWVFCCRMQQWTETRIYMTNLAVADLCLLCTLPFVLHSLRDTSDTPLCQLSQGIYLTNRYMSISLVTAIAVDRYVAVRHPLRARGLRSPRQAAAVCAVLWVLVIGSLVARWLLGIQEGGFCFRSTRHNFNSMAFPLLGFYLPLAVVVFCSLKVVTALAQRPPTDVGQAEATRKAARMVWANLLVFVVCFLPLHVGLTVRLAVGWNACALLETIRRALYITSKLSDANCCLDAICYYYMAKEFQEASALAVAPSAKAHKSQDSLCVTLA

Structure (SMILES) | IC50 [nM]
Cc1ncc(-c2cc(C(=O)Nc3ccc(OCC4CC4)cc3)ccn2)cc1C(=O)O [Example 72, 5-[4-[[4-(Cyclopropylmethoxy)phenyl]carbamoyl]-2-pyridyl]-2-methyl-pyridine-3-carboxylic acid] | 1000 to 10000
Cc1ncc(-c2cc(C(=O)Nc3ccc(OCC4CC4)cc3)c(F)cn2)cc1C(=O)O [Example 73, 5-[4-[[4-(Cyclopropylmethoxy)phenyl]carbamoyl]-5-fluoro-2-pyridyl]-2-methyl-pyridine-3-carboxylic acid] | 1000 to 10000
Cc1ncc(-c2cc(C(=O)Nc3ccc(COCc4ccccc4)cc3)ccn2)cc1C(=O)O [Example 74, 5-[4-[[4-(Benzyloxymethyl)phenyl]carbamoyl]-2-pyridyl]-2-methyl-pyridine-3-carboxylic acid] | < 1000
Cc1cc(C(=O)Nc2ccc(COCc3ccccc3)cc2)cc(-c2cnc(C)c(C(=O)O)c2)n1 [Example 75, 5-[4-[[4-(Benzyloxymethyl)phenyl]carbamoyl]-6-methyl-2-pyridyl]-2-methyl-pyridine-3-carboxylic acid] | < 1000
Cc1ncc(-c2cc(C(=O)Nc3ccc(COCc4ccccc4)cc3)c(F)cn2)cc1C(=O)O [Example 76, 5-[4-[[4-(Benzyloxymethyl)phenyl]carbamoyl]-5-fluoro-2-pyridyl]-2-methyl-pyridine-3-carboxylic acid] | < 1000
Cc1ncc(-c2cc(C(=O)Nc3ccc(COCc4ccccc4)c(F)c3)ccn2)cc1C(=O)O [Example 77, 5-[4-[[4-(Benzyloxymethyl)-3-fluoro-phenyl]carbamoyl]-2-pyridyl]-2-methyl-pyridine-3-carboxylic acid] | < 1000
Cc1ncc(-c2cc(C(=O)Nc3ccc(COC4CC4)c(F)c3)ccn2)cc1C(=O)O [Example 78, 5-[4-[[4-(Cyclopropoxymethyl)-3-fluoro-phenyl]carbamoyl]-2-pyridyl]-2-methyl-pyridine-3-carboxylic acid] | 1000 to 10000
Cc1ncc(-c2cc(C(=O)Nc3ccc(OCC4CC4)c(F)c3)ccn2)cc1C(=O)O [Example 79, 5-[4-[[4-(Cyclopropylmethoxy)-3-fluoro-phenyl]carbamoyl]-2-pyridyl]-2-methyl-pyridine-3-carboxylic acid] | 1000 to 10000
COc1ccc(-c2cnc(C)c(C(=O)O)c2)cc1C(=O)Nc1ccc(COCc2ccccc2)cc1 [Example 80, 5-[3-[[4-(Benzyloxymethyl)phenyl]carbamoyl]-4-methoxy-phenyl]-2-methyl-pyridine-3-carboxylic acid] | < 1000
COc1ccc(C(=O)Nc2ccc(COCc3ccccc3)cc2)cc1-c1cnc(C)c(C(=O)O)c1 [Example 81, 5-[5-[[4-(Benzyloxymethyl)phenyl]carbamoyl]-2-methoxy-phenyl]-2-methyl-pyridine-3-carboxylic acid] | < 1000
Cc1ccc(-c2cnc(C)c(C(=O)O)c2)cc1C(=O)Nc1ccc(COCc2ccccc2)cc1 [Example 82, 5-[3-[[4-(Benzyloxymethyl)phenyl]carbamoyl]-4-methyl-phenyl]-2-methyl-pyridine-3-carboxylic acid] | 1000 to 10000
Cc1ccc(C(=O)Nc2ccc(COCc3ccccc3)cc2)cc1-c1cnc(C)c(C(=O)O)c1 [Example 83, 5-[5-[[4-(Benzyloxymethyl)phenyl]carbamoyl]-2-methyl-phenyl]-2-methyl-pyridine-3-carboxylic acid] | < 1000
Cc1ncc(-c2ccc(F)c(C(=O)Nc3ccc(OCC4CC4)cc3)c2)cc1C(=O)O [Example 84, 5-[3-[[4-(Cyclopropylmethoxy)phenyl]carbamoyl]-4-fluoro-phenyl]-2-methyl-pyridine-3-carboxylic acid] | 1000 to 10000
Cc1ncc(-c2cc(C(=O)Nc3ccc(COCc4ccccc4)cc3)ccc2F)cc1C(=O)O [Example 85, 5-[5-[[4-(Benzyloxymethyl)phenyl]carbamoyl]-2-fluoro-phenyl]-2-methyl-pyridine-3-carboxylic acid] | < 1000
